A word on the inhibition: it is the drop in the measured response relative to a control, in per cent.

From patent US20100029615A1, “BENZIMIDAZOLE DERIVATIVES” (priority 2006, published 2010) come the findings set out here.

Structures can show the parent of a compound that is named as a salt. Where two headings read alike, the source gives them in different places.

The assay has as its target T1, SMO (Mus musculus, UniProt P56726).
T1 construct: endogenous in cells; host or cells: C3H10T1/2 (ATCC #CCL-226)
The assay can be described thus: Smoothened (SMO)/Sonic Hedgehog (SHh) Transient Transcriptional Activation Assay (Gli-luciferase reporter in C3H10T1/2 cells). The class given is cell-based, murine. As to conditions: SHh 250 ng/ml, 20 hrs. An outline of the steps:
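Luminescence (Dual-Glo) measured after 20 h co-exposure at 37 °C to 250 ng/ml human SHh and compound at 2 uM down to 2 nM final. Cells were C3H10T1/2 carrying a transfected murine 10× Gli response-element luciferase construct with pEGFP, starved 20 h in 0.5% calf serum beforehand.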
A general note: Reporter assays use an easily measured gene product as a stand-in for the process of interest.

[1] abbreviates: C3H 10T1/2, 2 μM test compound, read-out: SMO CELL % INHIBITION @ 2 μM.
Setting [2] is: C3H 10T1/2, 2 uM test compound, read-out: SMO % inhibition at 2 uM.

T1 sequence (P56726 33-793): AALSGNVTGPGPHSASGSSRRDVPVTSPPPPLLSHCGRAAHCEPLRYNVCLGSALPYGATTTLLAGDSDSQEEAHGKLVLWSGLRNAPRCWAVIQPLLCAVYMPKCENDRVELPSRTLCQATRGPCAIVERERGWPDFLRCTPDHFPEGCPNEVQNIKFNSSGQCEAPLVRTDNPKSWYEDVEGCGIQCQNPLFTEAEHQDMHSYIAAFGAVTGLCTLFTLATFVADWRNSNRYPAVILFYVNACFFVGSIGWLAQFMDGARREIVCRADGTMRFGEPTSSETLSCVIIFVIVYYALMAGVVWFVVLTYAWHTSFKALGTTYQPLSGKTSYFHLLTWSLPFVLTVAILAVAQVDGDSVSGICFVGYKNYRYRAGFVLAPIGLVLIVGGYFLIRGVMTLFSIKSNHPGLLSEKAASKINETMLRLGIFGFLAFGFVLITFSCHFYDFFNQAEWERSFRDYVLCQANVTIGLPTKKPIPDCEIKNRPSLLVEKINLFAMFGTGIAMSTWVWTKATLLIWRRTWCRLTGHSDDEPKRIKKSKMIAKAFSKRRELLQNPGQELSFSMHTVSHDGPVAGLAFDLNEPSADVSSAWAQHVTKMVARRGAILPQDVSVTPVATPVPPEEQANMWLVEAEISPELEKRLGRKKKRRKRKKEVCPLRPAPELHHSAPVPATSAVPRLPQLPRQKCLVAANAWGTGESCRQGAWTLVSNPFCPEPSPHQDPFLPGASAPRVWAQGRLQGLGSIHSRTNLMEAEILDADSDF

Take `COc1cc(OC)cc(C(=O)NC2CCCC(c3nc4ccccc4[nH]3)C2)c1` (stereo not drawn) [Example 52, N-[3-(1H-benzimidazol-2-yl)cyclohexyl]-3,5-dimethoxybenz-amide HCl]: the inhibition at 2 µM under setting [1] was determined as 105%. As for `O=C(NC12CCCC(c3nc4ccccc4[nH]3)(C1)C2)c1ccc(C(=O)c2ccccc2)cc1` [Example 278, N-[5-(1H-benzimidazol-2-yl)bicyclo[3.1.1]hept-1-yl]-4-benzoylbenz-amide], the inhibition at 2 µM under setting [1] is 99.9%. Still for that read-out and setting: the result for `O=C1CCc2cc(C(=O)N[C@H]3CCC[C@H](c4nc5ccccc5[nH]4)C3)ccc2N1` [Example 247, N-(3-(1H-benzo[d]imidaz-ol-2-yl)cyclohexyl)-2-oxo-1,2,3,4-tetrahydroquino-line-6-carboxamide HCl] reads 98%.

Consider `O=C(NC1CCCC(c2nc3ccccc3[nH]2)C1)c1ccc2cc[nH]c2c1` (stereo not drawn) [Example 141, N-[3-(1H-benzimidazol-2-yl)cyclohexyl]-1H-indole-6-carboxamide triflouroacetate], for which the “SMO CELL % INHIBITION @ 2 μM” value (2 μM test compound) is recorded as 110%.

For `N#CCCn1c(C2CCCC(NC(=O)c3ccc4c(c3)OCCO4)C2)nc2ccccc21` (stereo not drawn) [Example 15, N-(3-(1-(2-Cyanoethyl)-1H-benzo[d]imidazol-2-yl)cyclohexyl)-2,3-dihydrobenzo[b][1,4]dioxine-6-carboxamide], under setting [2], the inhibition at 2 µM was 94%. With `O=C(N[C@@H]1CCC[C@H](c2nc3ccccc3[nH]2)C1)c1cnc2c(c1)OCCO2` [Example 243, N-((1R,3S)-3-(1H-benzo[d]imidaz-ol-2-yl)cyclohexyl)-2,3-dihydro-[1,4]dioxino[2,3-b]pyridine-7-carboxamide], the inhibition at 2 µM under setting [1] stood at 96%. Still for that read-out and setting: the result for `COc1cc(OC)cc(C(=O)N[C@H]2CCC[C@H](c3nc4ccccc4[nH]3)C2)c1` [Example 252, N-(3-(1H-benzo[d]imidaz-ol-2-yl)cyclohexyl)-3,5-dimethoxybenz-amide HCl] reads 46%; that for `CCc1c(C(=O)N[C@@H]2CCC[C@H](c3nc4ccccc4[nH]3)C2)[nH]c2ccccc12` [Example 214, N-[(1R,3S)-3-(1H-benzimidazol-2-yl)cyclohexyl]-3-ethyl-1H-indole-2-carboxamide triflouroacetate], 100%. Still for that read-out and setting: the result for `Cn1cncc1C(=O)N[C@@H]1CCC[C@H](c2nc3ccccc3[nH]2)C1` [Example 174, N-[(1R,3S)-3-(1H-benzimidazol-2-yl)cyclohexyl]-1-methyl-1H-imidazole-5-carboxamide HCl] reads 64%; that for `Cn1c([C@H]2CCC[C@@H](NC(=O)c3ccc4c(c3)CNCC4)C2)nc2ccccc21` [Example 310, N-[(1R,3S)-3-(1-methyl-1H-benzimidazol-2-yl)cyclohexyl]-1,2,3,4-tetrahydroiso-quinoline-7-carboxamide HCl], 91.6%. Still for that read-out and setting: the result for `Cc1cc2nc(C3CCCC(NC(=O)c4ccc5c(c4)OCCO5)C3)[nH]c2cc1C` (stereo not drawn) [Example 80, N-[3-(5,6-dimethyl-1H-benzimidazol-2-yl)cyclohexyl]-2,3-dihydro-1,4-benzodioxine-6-carboxamide HCl] reads 103%. Turning to `COc1cc(OC)cc(C(=O)NC2CCCC(c3nc4cc(Cl)ccc4[nH]3)C2)c1` (stereo not drawn) [Example 25, N-(3-(6-Chloro-1H-benzo[d]imidazol-2-yl)cyclohexyl]-3,5-dimethoxybenzamide], the inhibition at 2 µM under setting [2] was 99%. As to `COc1ccc2cc(C(=O)NC3CCCC(c4nc5ccccc5[nH]4)C3)n(C)c2c1` (stereo not drawn) [Example 118, N-[3-(1H-benzimidazol-2-yl)cyclohexyl]-6-methoxy-1-methyl-1H-indole-2-carboxamide triflouroacetate], the inhibition at 2 µM under setting [1] was 83%. On the same count and under the same terms, the result for `Cn1c([C@H]2CCC[C@@H](NC(=O)c3ccc4c(c3)OCCO4)C2)nc2ccccc21` [Example 66, N-[(1R,3S)-3-(1-methyl-1H-benzimidazol-2-yl)cyclohexyl]-2,3-dihydro-1,4-benzodioxine-6-carboxamide HCl] reads 107%. Same read-out and setting: the result for `O=C(N[C@H]1CCC[C@@H](c2nc3cc(Br)ccc3[nH]2)C1)c1ccc2c(c1)OCCO2` [Example 150, N-[(1S,3R)-3-(5-bromo-1H-benzimidazol-2-yl)cyclohexyl]-2,3-dihydro-1,4-benzodioxine-6-carboxamide HCl] reads 45%.

Take `O=C(N[C@@H]1CCC[C@H](c2nc3ccccc3[nH]2)C1)c1ccc2nsnc2c1` [Example 206, N-[(1R,3S)-3-(1H-benzimidazol-2-yl)cyclohexyl]-2,1,3-benzothiadiazole-5-carboxamide triflouroacetate]: under setting [1], the inhibition at 2 µM came to 56%. Still for that read-out and setting: the result for `O=C(NC1CCCC(c2nc3ccccc3[nH]2)C1)c1ccc2c(c1)OCO2` (stereo not drawn) [Example 58, N-[3-(1H-benzimidazol-2-yl)cyclohexyl]-1,3-benzodioxole-5-carboxamide HCl] reads 82%; that for `CC(C)c1ccc(NC(=O)N[C@@H]2CCC[C@H](c3nc4ccccc4[nH]3)C2)cc1` [Example 236, 1-[(1R,3S)-3-(1H-benzimidazol-2-yl)cyclohexyl]-3-(4-isopropylphenyl) urea], 108%.

With `O=C(NC12CCCC(c3nc4cc(C(F)(F)F)ccc4[nH]3)(C1)C2)c1cc2c(cn1)OCCO2` [Example 263, N-{5-[5-(trifluoromethyl)-1H-benzimidazol-2-yl]bicyclo[3.1.1]hept-1-yl}-2,3-dihydro[1,4]di-oxino[2,3-c]pyridine-7-carboxamide], the inhibition at 2 µM under setting [1] turned out to be 91.4%.

In the case of `O=C(NC1CCCC(c2nc3ccccc3[nH]2)C1)c1n[nH]c2ccccc12` (stereo not drawn) [Example 101, N-[3-(1H-benzimidazol-2-yl)cyclohexyl]-1H-indazole-3-carboxamide triflouroacetate], the inhibition at 2 µM under setting [1] turned out to be 56%.

As to `O=C(NC1CCCC(c2nc3ccccc3[nH]2)C1)c1ccc2[nH]c(=O)[nH]c(=O)c2c1` (stereo not drawn) [Example 158, N-[3-(1H-benzimidazol-2-yl)cyclohexyl]-2,4-dioxo-1,2,3,4-tetrahydroquin-azoline-6-carboxamide triflouroacetate], the inhibition at 2 µM under setting [1] amounted to 73%. Still for that read-out and setting: the result for `COc1ccc2[nH]c([C@H]3CCC[C@H](NC(=O)c4ccc5c(c4)OCCO5)C3)nc2c1` [Example 254, N-(3-(5-methoxy-1H-benzo[d]imidaz-ol-2-yl)cyclohexyl)-2,3-dihydrobenzo[b] [1,4]dioxine-6-carboxamide HCl] reads 91%; that for `O=C(NC1CCCC(c2nc3ccc(C(F)(F)F)cc3[nH]2)C1)c1ccc2c(c1)OCCO2` (stereo not drawn) [Example 84, N-{3-[6-(trifluoromethyl)-1H-benzimidazol-2-yl]cyclohexyl}-2,3-dihydro-1,4-benzodioxine-6-carboxamide-HCl], 101%; that for `O=C(Cn1ncc2ccccc21)NC1CCCC(c2nc3ccccc3[nH]2)C1` (stereo not drawn) [Example 95, N-[3-(1H-benzimidazol-2-yl)cyclohexyl]-2-(1H-indazol-1-yl)acetamide triflouroacetate], 20%. Same read-out and setting: the result for `O=C(NC12CCCC(c3nc4cc(C(F)(F)F)ccc4[nH]3)(C1)C2)c1c(F)c(F)c(F)c(F)c1F` [Example 288, 2,3,4,5,6-pentafluoro-N-{5-[5-(trifluoromethyl)-1H-benzimidazol-2-yl]bicyclo[3.1.1]hept-1-yl}benzamide] reads 93.3%; that for `Cc1cc(C(=O)N[C@@H]2CCC[C@H](c3nc4ccccc4[nH]3)C2)n(C)n1` [Example 177, N-[(1R,3S)-3-(1H-benzimidazol-2-yl)cyclohexyl]-1,3-dimethyl-1H-pyrazole-5-carboxamide HCl], 73%; that for `O=C(CCC(=O)c1ccccc1)NC1CCCC(c2nc3ccccc3[nH]2)C1` (stereo not drawn) [Example 89, N-[3-(1H-benzimidazol-2-yl)cyclohexyl]-4-oxo-4-phenylbutanamide triflouroacetate], 96%. The same measure, in the same setting: the result for `O=C(NC1CCCC(c2nc3ccccc3[nH]2)C1)c1ccnn1-c1ccccc1` (stereo not drawn) [Example 106, N-[3-(1H-benzimidazol-2-yl)cyclohexyl]-1-phenyl-1H-pyrazole-5-carboxamide triflouroacetate] reads 76%. For `O=C(NC1CCCC(c2nc3ccccc3[nH]2)C1)c1cnn2c1CCCC2` (stereo not drawn) [Example 122, N-(3-(1H-benzo[d]imida-zol-2-yl)cyclohexyl)-4,5,6,7-tetrahydropyr-azolo[1,5-a]pyridine-3-carboxamide triflouroacetate], the inhibition at 2 µM under setting [1] came out at 92%. Still for that read-out and setting: the result for `O=C(NC1CCCC1)N[C@@H]1CCC[C@H](c2nc3ccccc3[nH]2)C1` [Example 226, 1-((1R,3S)-3-(1H-benzo[d]imidaz-ol-2-yl)cyclohexyl)-3-cyclopentylurea] reads 63%; that for `O=C(N[C@@H]1CCC[C@H](c2nc3ccc(Cl)cc3[nH]2)C1)c1ccc2c(c1)OCCO2` [Example 178, N-[(1R,3S)-3-(6-chloro-1H-benzimidazol-2-yl)cyclohexyl]-2,3-dihydro-1,4-benzodioxine-6-carboxamide HCl], 110%. For the compound `COc1ccc2cc(C(=O)N[C@@H]3CCC[C@H](c4nc5ccccc5[nH]4)C3)[nH]c2c1` [Example 211, N-[(1R,3S)-3-(1H-benzimidazol-2-yl)cyclohexyl]-6-methoxy-1H-indole-2-carboxamide triflouroacetate], under setting [1], the inhibition at 2 µM came out at 89%. On the same count and under the same terms, the result for `O=C(N[C@@H]1CCC[C@H](c2nc3ccccc3[nH]2)C1)c1cc2ccc(F)cc2[nH]1` [Example 209, N-[(1R,3S)-3-(1H-benzimidazol-2-yl)cyclohexyl]-6-fluoro-1H-indole-2-carboxamide triflouroacetate] reads 32%.
